Source: PMC4982760, “Small-molecule inhibitors identify the RAD52-ssDNA interaction as critical for recovery from replication stress and for survival of BRCA2 deficient cells” (eLife, 2016)

Tests used:
[1] = system: RAD52; design: method as in Chandramouly et al., 2015; settings: ref Chandramouly et al., 2015; cited from earlier work
[2] = target: T1, RPA (Homo sapiens, UniProt P15927+P27694+P35244); assay: WaterLOGSY NMR binding to RPA; settings: 20-40 μM compound, 3.3 μM RPA
T1 construct: made in house
Excerpt: (§1) To confirm that the selected compounds bind RAD52, we employed water-ligand observation with gradient spectroscopy (WaterLOGSY), an NMR technique, which is based on transfer of magnetization from bulk water to the protein-bound compound of interest ([Dalvit et al., 2001], [2000]). In WaterLOGSY spectrum, if a compound binds to a protein, the compound will receive negative nuclear Overhauser effects (NOEs) due to the slow tumbling of the protein-compound complex, leading to a positive WaterLOGSY peak. […] Similarly, the binding of ‘6’to RAD52 is evident from the positive WaterLOGSY peaks that are clearly detected for this compound (Figure 3a).
(§2) Compound binding to RAD52 and RPA proteins was analyzed using water-ligand observation with gradient spectroscopy (WaterLOGSY) NMR experiments ([Dalvit et al., 2001], [2000]). The WaterLOGSY spectra of compounds in the presence of RAD52 or RPA were acquired using a water NOE mixing time of 1 s and a T2 relaxation filter of 50 ms just before data acquisition to suppress the broad signals derived from protein. The protein buffer used in the experiments contains 10 mM Tris-d11, 75 mM KCl, 0.25 mM EDTA, pH 7.5, and 10% D20. All NMR data were acquired on a Bruker Avance II 800 MHz NMR spectrometer equipped with a sensitive cryoprobe and recorded at 25°C. The ^1H chemical shifts were referenced to 2,2-dimethyl-2-silapentane-5-sulfonate (DSS). NMR spectra were processed using NMR Pipe ([Delaglio et al., 1995]) and analysed using NMR View ([Johnson and Blevins, 1994]).

[3] = target: T2, RAD52 (Homo sapiens, UniProt P43351); assay: WaterLOGSY NMR binding to RAD52; settings: 20-40 μM compound, 3.3 μM RAD52
T2 construct: made in house
T2 sequence (P43351 1-418): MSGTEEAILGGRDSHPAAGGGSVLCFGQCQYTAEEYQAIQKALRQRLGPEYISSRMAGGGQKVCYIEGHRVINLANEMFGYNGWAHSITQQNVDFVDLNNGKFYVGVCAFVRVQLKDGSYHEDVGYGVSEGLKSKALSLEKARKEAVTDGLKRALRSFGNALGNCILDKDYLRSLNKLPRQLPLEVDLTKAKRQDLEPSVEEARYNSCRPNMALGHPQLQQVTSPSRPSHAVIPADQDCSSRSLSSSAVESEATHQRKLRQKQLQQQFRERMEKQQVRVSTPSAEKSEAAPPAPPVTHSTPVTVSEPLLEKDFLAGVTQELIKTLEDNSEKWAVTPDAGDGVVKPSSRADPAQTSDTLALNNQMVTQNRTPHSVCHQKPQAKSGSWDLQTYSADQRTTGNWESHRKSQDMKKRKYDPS
Excerpt: as §1, §2

[4] = system: GM01604 cells (hTERT-immortalized wild-type human fibroblasts); assay: Neutral comet assay, MUS81/EME1/RAD52-dependent DSB formation; format: cell-based; settings: Homo sapiens, Fibroblast; GM01604, 2 mM HU + 300 nM UCN01, 6h; read-out: IC50, decrease of mean tail moment following HU treatment
Excerpt: In human cells, RAD52 may perform both limited recombination-mediator function in the RAD51-dependent pathway ([Lok and Powell, 2012]; [Benson et al., 1998]; [Feng et al., 2011]) as well as additional RAD51-independent roles ([Lok and Powell, 2012]; [Murfuni et al., 2013]; [McIlwraith and West, 2008]). One of these HR independent roles of RAD52 involves stimulation of MUS81/EME1-dependent DSB formation at replication forks stalled by hydroxyurea (HU) treatment in the absence of cellular checkpoints ([Murfuni et al., 2013]). Since the most likely targets of these MUS81/EME1/RAD52-dependent DSBs are the DNA structures produced by RAD52 ([Murfuni et al., 2013]), we expected this activity to depend on the RAD52-ssDNA interaction (Figure 5a). To confirm this, we assessed DSB formation in checkpoint deficient cells using the neutral comet assay. These assays monitor MUS81/EME1/RAD52-dependent DSB formation upon induction of replication stress by HU treatment in primary fibroblasts immortalized by hTERT expression and treated with UNC01 to inhibit CHK1 kinase (Figure 5b). […] Importantly, these inhibitors recapitulate RAD52 depletion by inhibiting RAD52-MUS81-dependent DSBs at stalled replication forks (Figure 5a–b). […] It also confirms our previous supposition that the target of MUS81/EME1-mediated cleavage under these conditions are indeed the structures annealed by RAD52. […]
To induce RAD52-MUS81-dependent cleavage at arrested replication forks ([Murfuni et al., 2013]), hTERT-immortalized wild-type human fibroblasts (GM01604) were treated with 2 mM HU and 300 nM UCN01 for 6h, in the presence and absence of varying concentrations of ‘1’ or ‘6’. […] Slides were analyzed by a computerized image analysis system (Comet IV, Perceptive UK). To assess the quantity of DNA damage, computer-generated tail moment values (tail length x fraction of total DNA in the tail) were used. […] A minimum of 100 cells were analyzed for each compound concentration point.

[5] = target: T3, interaction between RAD52 and RPA proteins (Homo sapiens, UniProt P43351); assay: Ni-NTA pull-down of the RAD52-RPA interaction; format: binding; settings: 3 μM RAD52, 3 μM RPA, 3 μM compound
T3 construct: made in house

[6] = target: T4, RPA-ssDNA interaction (Homo sapiens, UniProt P15927+P27694+P35244); assay: FRET titration of the RPA-Cy3-dT30-Cy5 complex; format: binding; settings: range of tested concentrations
T4 construct: made in house
Excerpt: In the cell, ssDNA is typically found in complex with Replication protein A (RPA), the major eukaryotic ssDNA-binding protein essential for DNA replication, repair and recombination ([Wold, 1997]; [Oakley and Patrick, 2010]; [Chen and Wold, 2014]). The RPA-ssDNA complex is a physiologically relevant substrate for the RAD52-mediated strand annealing. […] RPA binds ssDNA with high affinity and extends the ssDNA to its contour length. In our assays such an extension manifests as a distinct FRET state of ~0.3, which is readily distinguished from a FRET state of ~0.48 of free Cy3-dT30-Cy5 ssDNA, as well as ~0.63 FRET of the stoichiometric ssDNA-RPA-RAD52 complex (see Figure 2—figure supplement 1 and ([Grimme and Spies, 2011]) for details). […] Both, however, inhibited the RAD52 binding to and wrapping of RPA-coated ssDNA with IC50 values identical to those determined without RPA (Figure 2e and Figure 3e).
In all experiments, the FRET values for each data point were corrected for the effects of the compounds on the respective substrate in the absence of RAD52.

[7] = target: the molecule itself; assay: dynamic light scattering; average hydrodynamic radius of RAD52 (15.8 uM) alone or with equimolar compound; 25 C; 50 mM Tris-HCl pH 7.5, 200 mM KCl, 1 mM DTT, 0.5 mM EDTA
[8] = target: RPA (UniProt P27694;P15927;P35244 1-616;1-270;1-121); assay: FRET; 1 nM RPA, 1 nM ssDNA; FRET about 0.3 versus about 0.48 for free DNA; FRET: 30 mM Tris-acetate pH 7.5, 1 mM DTT, 0.1 mg/mL BSA, 25 C; HTS: 20 mM Hepes pH 7.5, 1 mM DTT, 0.1 mg/mL BSA, 25 C; settings: protein: recombinant; copies: 1;1;1; label: Cy3 and Cy5 at the two ends
[9] = target: T5, RAD52 (UniProt P43351 1-418); assay: FRET; 1 nM ssDNA; stoichiometric wrapped complex at about 8 nM RAD52; FRET: 30 mM Tris-acetate pH 7.5, 1 mM DTT, 0.1 mg/mL BSA, 25 C; HTS: 20 mM Hepes pH 7.5, 1 mM DTT, 0.1 mg/mL BSA, 25 C; settings: protein: recombinant; chain copies: 7; label: Cy3 and Cy5 at the two ends
T5 sequence: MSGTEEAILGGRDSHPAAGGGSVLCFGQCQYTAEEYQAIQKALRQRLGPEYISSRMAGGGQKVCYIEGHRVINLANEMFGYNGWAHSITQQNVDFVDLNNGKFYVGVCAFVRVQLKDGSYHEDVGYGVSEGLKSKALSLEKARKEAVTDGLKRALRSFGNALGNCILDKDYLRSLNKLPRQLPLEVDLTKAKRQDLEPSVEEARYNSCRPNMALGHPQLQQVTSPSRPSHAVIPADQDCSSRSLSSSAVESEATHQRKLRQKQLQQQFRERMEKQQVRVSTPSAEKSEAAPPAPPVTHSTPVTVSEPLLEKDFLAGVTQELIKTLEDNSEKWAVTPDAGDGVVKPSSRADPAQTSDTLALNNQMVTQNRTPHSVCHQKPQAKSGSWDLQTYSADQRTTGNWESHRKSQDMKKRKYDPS

[10] = target: RAD52;RPA (Homo sapiens?;Homo sapiens?, UniProt P43351;P27694;P15927;P35244 1-418;1-616;1-270;1-121, |); assay: FRET; 1 nM RPA-coated ssDNA titrated with RAD52; FRET about 0.63; FRET: 30 mM Tris-acetate pH 7.5, 1 mM DTT, 0.1 mg/mL BSA, 25 C; HTS: 20 mM Hepes pH 7.5, 1 mM DTT, 0.1 mg/mL BSA, 25 C; settings: protein: recombinant;recombinant; tags: ;; chain copies: 7;1;1;1; label: Cy3 and Cy5 at the two ends
Chain of RAD52;RPA (P27694 whole entry, chain 2 of 3): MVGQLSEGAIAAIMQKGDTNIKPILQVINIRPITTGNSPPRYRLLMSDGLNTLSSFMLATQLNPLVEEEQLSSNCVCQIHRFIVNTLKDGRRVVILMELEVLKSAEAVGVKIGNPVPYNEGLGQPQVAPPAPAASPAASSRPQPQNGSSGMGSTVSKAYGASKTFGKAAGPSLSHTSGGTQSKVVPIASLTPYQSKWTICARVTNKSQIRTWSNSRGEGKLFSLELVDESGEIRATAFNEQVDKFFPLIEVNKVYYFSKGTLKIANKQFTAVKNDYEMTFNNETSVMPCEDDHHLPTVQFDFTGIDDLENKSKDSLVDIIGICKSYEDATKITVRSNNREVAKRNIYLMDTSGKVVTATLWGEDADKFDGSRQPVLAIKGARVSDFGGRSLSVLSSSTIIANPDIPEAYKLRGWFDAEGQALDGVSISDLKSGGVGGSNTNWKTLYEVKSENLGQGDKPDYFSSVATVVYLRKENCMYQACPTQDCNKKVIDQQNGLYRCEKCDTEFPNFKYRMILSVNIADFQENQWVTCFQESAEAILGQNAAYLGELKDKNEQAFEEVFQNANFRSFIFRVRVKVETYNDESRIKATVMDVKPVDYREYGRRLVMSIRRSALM
Chain of RAD52;RPA (P15927 whole entry, chain 3 of 3): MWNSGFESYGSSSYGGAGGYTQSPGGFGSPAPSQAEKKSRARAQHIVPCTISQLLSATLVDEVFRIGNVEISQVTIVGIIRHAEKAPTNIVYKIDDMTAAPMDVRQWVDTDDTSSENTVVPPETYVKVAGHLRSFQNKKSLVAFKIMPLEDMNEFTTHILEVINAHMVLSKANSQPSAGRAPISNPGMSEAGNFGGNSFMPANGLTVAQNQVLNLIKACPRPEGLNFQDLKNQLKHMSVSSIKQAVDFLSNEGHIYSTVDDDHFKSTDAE
Chain of RAD52;RPA (P35244 whole entry, chain 4 of 3): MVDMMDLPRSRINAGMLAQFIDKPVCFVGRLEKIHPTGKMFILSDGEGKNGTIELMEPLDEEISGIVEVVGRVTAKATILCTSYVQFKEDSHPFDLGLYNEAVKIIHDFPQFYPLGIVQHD

T1 sequence (P27694 whole entry): as the sequence (P27694 whole entry, chain 2 of 3) above
T1 sequence (P15927 whole entry): as the sequence (P15927 whole entry, chain 3 of 3) above
T1 sequence (P35244 whole entry): as the sequence (P35244 whole entry, chain 4 of 3) above
T4 sequence (P27694 whole entry): as the sequence (P27694 whole entry, chain 2 of 3) above
T4 sequence (P15927 whole entry): as the sequence (P15927 whole entry, chain 3 of 3) above
T4 sequence (P35244 whole entry): as the sequence (P35244 whole entry, chain 4 of 3) above
Chain of RPA (UniProt P27694;P15927;P35244 1-616;1-270;1-121) (P27694 whole entry, chain 1 of 3): as the sequence (P27694 whole entry, chain 2 of 3) above
Chain of RPA (UniProt P27694;P15927;P35244 1-616;1-270;1-121) (P15927 whole entry, chain 2 of 3): as the sequence (P15927 whole entry, chain 3 of 3) above
Chain of RPA (UniProt P27694;P15927;P35244 1-616;1-270;1-121) (P35244 whole entry, chain 3 of 3): as the sequence (P35244 whole entry, chain 4 of 3) above
T3 sequence (P27694 whole entry partner, one chain of several): as the sequence (P27694 whole entry, chain 2 of 3) above
T3 sequence (P15927 whole entry partner, one chain of several): as the sequence (P15927 whole entry, chain 3 of 3) above
T3 sequence (P35244 whole entry partner, one chain of several): as the sequence (P35244 whole entry, chain 4 of 3) above

NC(Cc1cc(O)c(O)cc1O)C(=O)O (racemic) [6-hydroxy-DL-dopa]
effect on RAD52 supramolecular assembly [1]: disrupts supramolecular assembly of the RAD52 protein

O=C(OC1Cc2c(O)cc(O)cc2OC1c1cc(O)c(O)c(O)c1)c1cc(O)c(O)c(O)c1 (stereo not shown) [Compound 6, Epigallocatechin-3-monogallate]
binding to RPA (WaterLOGSY) [2]: also binds to RPA
binding to RAD52 (WaterLOGSY) [3]: physically interact with RAD52 protein
IC50 [4]: ~10 µM
effect on the RAD52-RPA interaction [5]: neither ‘1’ nor ‘6’ interfered with the interaction between the two proteins
effect on the RPA-ssDNA interaction [6]: neither ‘1’ nor ‘6’ affected the RPA-ssDNA interaction

B1: 6xHis-tagged human RAD52 protein (natural protein, UniProt P43351 1-418, looked up)
chain: MSGTEEAILGGRDSHPAAGGGSVLCFGQCQYTAEEYQAIQKALRQRLGPEYISSRMAGGGQKVCYIEGHRVINLANEMFGYNGWAHSITQQNVDFVDLNNGKFYVGVCAFVRVQLKDGSYHEDVGYGVSEGLKSKALSLEKARKEAVTDGLKRALRSFGNALGNCILDKDYLRSLNKLPRQLPLEVDLTKAKRQDLEPSVEEARYNSCRPNMALGHPQLQQVTSPSRPSHAVIPADQDCSSRSLSSSAVESEATHQRKLRQKQLQQQFRERMEKQQVRVSTPSAEKSEAAPPAPPVTHSTPVTVSEPLLEKDFLAGVTQELIKTLEDNSEKWAVTPDAGDGVVKPSSRADPAQTSDTLALNNQMVTQNRTPHSVCHQKPQAKSGSWDLQTYSADQRTTGNWESHRKSQDMKKRKYDPS
notes: RAD52, human DNA repair protein; the N-terminal domain in PDB 1KNO is an undecameric ring
binding result [7]: binds

B2: Cy3-dT30-Cy5 (ssDNA)
DNA: TTTTTTTTTTTTTTTTTTTTTTTTTTTTTT
binding result [8]: binds
binding result [9]: binds
binding result [10]: binds
